Results reported in patent US8206732B2, “Pyrithione biocides enhanced by silver, copper, or zinc ions” (Arch Chemicals, Inc., priority 1999, dated 2012).
Several values for one entry are separate records, joined by “and”; a condition that tells them apart may be missing. Identical values can stand only once.

Key:
[1] = system: P. aeruginosa 9027 free-living cells; assay: Viable free-living cells in bulk metalworking fluid (Example 5); type: cell-based, Pseudomonas aeruginosa; settings: 100 PPM NaPT; for viable free-living cells in the bulk fluid: 5% soluble oil MWF, 2.5 PPM Zn(II) or both, 4 days
Fusarium sp. biofilm = assay: Viable biofilm cells on discs in metalworking fluid (Example 5); type: cell-based; settings: polycarbonate disc, 100 PPM NaPT, 10 PPM Zn (II) or both, 4 days after treatment
Procedure: (§1) Experiments were conducted to investigate the efficacy of the composition of the present invention to inhibit the survival, growth, and proliferation of free-living and biofilm populations of bacteria and fungi in metalworking fluids. […] Metalworking fluids (MWF) employed included 5% soluble oil MWF, 5% semi-synthetic MWF, or 5% synthetic MWS. For testing against bacteria, metalworking fluids were supplemented with 2% (weight-to-weight ratio (w:w)) of 5 g/L yeast extract (Difco), Metalworking fluids were supplemented with 2% (weight-to-weight (w:w)) of Tryptic Soy Broth (Difco) for fungal tests.
(§2) For each experiment, three ml of a 5% metalworking fluid was added to each of twelve, sterile, 16 mm×150 mm glass culture tubes. […] Fusarium sp. was added to the tubes to final concentrations of 10^5 spores/ml for the fungal tests. Tubes incubated for 3 days at 28° C. and 180 rpms.
(§3) After the treatments additions were performed, the culture tubes resumed incubation at 28° C., 180 rpms for an additional 4 days.
(§4) After 4 days, culture tubes were removed from the incubator and viable counts of organisms from the bulk MWF fluid and the biofilm were determined using serial dilution and drop plating techniques. For biofilms, polycarbonate discs were removed from tubes, dip-rinsed in three successive washes of de-ionized water to remove loosely attached cells, and transferred to 25 mm×150 mm culture tubes containing 10 ml of sterile, de-ionized water. Biofilms were removed from discs and resuspended by vortexing tubes for 30 seconds. Bacteria were plated on to R2A Agar plates and incubated at 37° C. Fungi were plated onto Malt Agar plates and incubated at 28° C. Mean colony forming units per ml (for bulk) and per square cm (cm^2) biofilm were determined for each experimental treatment.

[2] = system: Fusarium sp. free-living cells; assay: Viable free-living cells in bulk metalworking fluid (Example 5); type: cell-based; settings: 100 PPM NaPT, 10 PPM Zn (II) or both, 4 days after treatment
Procedure: as §1, §2, §3, §4

Candida albicans 10251 = assay: Checkerboard MIC test, pyrithiones with silver salts; type: cell-based; settings: NaPT alone or in the inhibitory mixture with silver salt; TSB pH 7.3, 35° C., 1 to 2 days
Cephalosporium sp. = assay: MIC in Tryptic Soy Broth, microtiter (Example 1); type: cell-based; settings: 28° C.
[3] = system: P. aeruginosa 9027 biofilm; assay: Viable biofilm cells on discs in metalworking fluid (Example 5); type: cell-based, Pseudomonas aeruginosa; settings: 100 PPM NaPT; for viable biofilm cells: 5% soluble oil MWF, 2.5 PPM Zn(II) or both, 4 days
[4] = system: Pseudomonas aeruginosa NCIMB 6749; assay: Zone of inhibition test (paper disc on TSA); type: cell-based; settings: 6.5 mm discs; 0.135% pyrithione, 0.1% ZnCl2 or both; 28° C., 24 hr
[5] = system: Pseudomonas aeruginosa 9027; assay: Checkerboard MIC test, pyrithiones with silver salts; type: cell-based; settings: NaPT alone or in the inhibitory mixture with silver salt; TSB pH 7.3, 35° C., 1 to 2 days
Escherichia coli 10536 = assay: as above; type: cell-based; settings: NaPT alone or in the inhibitory mixture with silver salt; TSB pH 7.3, 35° C., 1 to 2 days
Fusarium sp. [6] = assay: MIC in Tryptic Soy Broth, microtiter (Example 1); type: cell-based; settings: TSB with 0.5 ppm Cu (II), 28° C., 5 days
Procedure: Equal volumes of bacterial suspension (10^6 bacteria per milliliter of TSB) containing Pseudomonas aeruginosa ATCC 9027 or fungal spore suspension (10^5 spores per milliliter of TSB) containing Aspergillus niger ATCC 6275 or species of Fusarium and Cephalosporium isolated from contaminated metalworking fluid were added to each microtiter plate well, and the plates were incubated at 28° C. Controls were prepared for cultures inoculated into TSB with and without Cu (II).

Fusarium sp. [7] = assay: Checkerboard MIC test, pyrithiones with zinc salts; type: cell-based; settings: pyrithione alone or pyrithione concentration in the inhibitory mixture; TSB, 28 C, 5 days
Procedure: Mixtures of pyrithione and zinc or silver in various proportions were tested for relative efficacy by a modification of the procedure described by Dougherty, et al.
Equal volumes of bacteria (10^6 cells/ml) or fungi (10^5 spores/ml) were added to each microtiter plate well. The plates were incubated at 28 C for 3 days (bacteria) or 5 days (fungi), and the minimum inhibitory concentration (MIC) of biocide was determined. The Fractional Inhibitory Concentration (FIC=concentration of biocide in an inhibitory mixture divided by the MIC of the pure biocide) was determined, and the FIC Index (sum of the two FIC's) was calculated. The type of interaction was categorized according to the magnitude of the Index: Synergistic (<1), Additive (1), or Antagonistic (>1).

[8] = system: Pseudomonas aeruginosa NCIMB 6749; assay: Checkerboard MIC test, pyrithiones with zinc salts; type: cell-based; settings: pyrithione alone or pyrithione concentration in the inhibitory mixture; TSB, 28 C, 3 days
[9] = system: Staphylococcus aureus ATCC 27217; assay: Checkerboard MIC test, pyrithiones with zinc salts; type: cell-based; settings: pyrithione alone or pyrithione concentration in the inhibitory mixture; TSB, 28 C, 3 days
Pityrosporum ovale 1452 = assay: Checkerboard MIC test, pyrithiones with silver salts; type: cell-based; settings: NaPT alone or in the inhibitory mixture with silver salt; Ushijima Medium pH 5.5, 35° C., 1 to 2 days
[10] = system: Pseudomonas aeruginosa ATCC 9027; assay: MIC in Tryptic Soy Broth, microtiter (Example 1); type: cell-based; settings: 28° C.
[11] = system: Escherichia coli ATCC 10536; assay: Zone of inhibition test (paper disc on TSA); type: cell-based; settings: 6.5 mm discs; 0.135% pyrithione, 0.1% ZnCl2 or both; 28° C., 24 hr

SMILES: [Na+].[O-][n+]1ccccc1[S-] [NaPT, sodium pyrithione]
- viable free-living cells in the bulk fluid ([1]; tube with Polycarbonate surface): 4.9 × 10^5 cells/ml
- viable free-living cells in the bulk fluid ([1]; tube with Rubber surface): 50 cells/ml
- viable free-living cells in the bulk fluid ([1]; tube with Steel surface): 3.5 × 10^6 cells/ml
- viable free-living microorganisms ([1]; 5% synthetic MWF, 10 PPM Zn (II) or both, 4 days after treatment): 7.8 × 10^6 cells/ml and 7.0 × 10^5 cells/ml and 5.4 × 10^5 cells/ml
- viable biofilm microorganisms (Fusarium sp. biofilm; 5% semisynth. MWF): 18 cells/cm^2
- viable biofilm microorganisms (Fusarium sp. biofilm; 5% solub. oil MWF): 4.6 × 10^5 cells/cm^2
- viable biofilm microorganisms (Fusarium sp. biofilm; 5% synthetic MWF): 7.3 × 10^4 cells/cm^2
- viable biofilm microorganisms (Fusarium sp. biofilm; 100% TSB): 96 cells/cm^2
- viable free-living microorganisms ([2]; 5% semisynth. MWF): 2.8 × 10^5 cells/ml
- viable free-living microorganisms ([2]; 5% solub. oil MWF): 4.2 × 10^6 cells/ml
- viable free-living microorganisms ([2]; 5% synthetic MWF): 6.0 × 10^6 cells/ml
- viable free-living microorganisms ([2]; 100% TSB): 0 cells/ml
- MIC NaPT (Candida albicans 10251): 16 ppm
- MIC NaPT (with 0.5 ppm Cu) (Cephalosporium sp.; TSB with 0.5 ppm Cu (II), 5 days): 16 ppm
- MIC (Cephalosporium sp.; TSB, incubated 5 days, single agent (NaPT without Cu)): 64 ppm
- viable biofilm microorganisms ([3]; 5% solub. oil MWF, polycarbonate disc, 10 PPM Zn (II) or both, 4 days after treatment): 2.0 × 10^5 cells/cm^2 and 2.6 × 10^4 cells/cm^2
- viable biofilm cells ([3]; Polycarbonate surface): 2.8 × 10^4 cells/cm^2
- viable biofilm cells ([3]; Rubber surface): 5.3 × 10^2 cells/cm^2
- viable biofilm cells ([3]; Steel surface): 1.1 × 10^5 cells/cm^2
- Zone of Inhibition [4]: 8 mm
- MIC NaPT [5]: 256 ppm
- MIC NaPT (Escherichia coli 10536): 16 ppm
- MIC NaPT (with 0.5 ppm Cu) (Fusarium sp. [6]): 8 ppm
- MIC Pyrithione (Fusarium sp. [7]): 411 ppm
- MIC Pyrithione [8]: 128 ppm
- MIC Pyrithione [9]: 4 ppm
- MIC NaPT (Pityrosporum ovale 1452): 4 ppm
- MIC NaPT (with 0.5 ppm Cu) ([10]; TSB with 0.5 ppm Cu (II), 5-6 days): 256 ppm
- MIC ([10]; TSB, incubated 5-6 days, single agent (NaPT without Cu)): 256 ppm
- Zone of Inhibition [11]: 35 mm
